This is an account of results in US20260028342A1, “ENHANCING ANTIMETASTASIS ACTIVITY USING TARGETED PROTEIN DEGRADATION” (THE UNIVERSITY OF NORTH CAROLINA AT CHAPEL HILL, priority 2022, published 2026).

Structures are written as SMILES. Entries after “also recorded” stand apart in the source; their conditions may differ. Where two headings read alike, the source gives them in different places.

For data set [1], the system named is nucleoli in RPE1 normal cells. As to the kind of experiment: IC50 disrupting nucleoli in normal cells (RPE1). Type of data set: cell-based. The note with it: Homo sapiens, RPE-1.
The test system of a further data set is PNC in HeLa cancer cells. The data set is described as follows: PNC inhibition: IC50 inhibiting PNC in cancer cells (HeLa). Type of data set: cell-based. Particulars: for IC50: Homo sapiens, HeLa cancer cells, inhibiting PNC; for fold more potent than metarrestin: PNC inhibition, versus metarrestin; for IC50 nucleoli.normal/IC50 PNC.cancer: ratio RPE1 nucleoli IC50 to HeLa PNC IC50. The method, then:
PNC inhibitory activity was determined using fluorescent imaging techniques known in the art, such as: a CellTiter-Glo® luminescence assay from Promega to determine cell viability and/or fluorescent imaging studies with an IN Cell Analyzer 1000 automated system in combination with a green fluorescent protein (GFP) tagged PNC localized complex.

The target of data set [2] is T1, eEF1A2 (Homo sapiens, UniProt Q05639).
T1 construct: Compound 49 treatment for 20 hours reduced eEF1A2 by Western blot analysis; endogenous in cells
T1 sequence (Q05639 1-463): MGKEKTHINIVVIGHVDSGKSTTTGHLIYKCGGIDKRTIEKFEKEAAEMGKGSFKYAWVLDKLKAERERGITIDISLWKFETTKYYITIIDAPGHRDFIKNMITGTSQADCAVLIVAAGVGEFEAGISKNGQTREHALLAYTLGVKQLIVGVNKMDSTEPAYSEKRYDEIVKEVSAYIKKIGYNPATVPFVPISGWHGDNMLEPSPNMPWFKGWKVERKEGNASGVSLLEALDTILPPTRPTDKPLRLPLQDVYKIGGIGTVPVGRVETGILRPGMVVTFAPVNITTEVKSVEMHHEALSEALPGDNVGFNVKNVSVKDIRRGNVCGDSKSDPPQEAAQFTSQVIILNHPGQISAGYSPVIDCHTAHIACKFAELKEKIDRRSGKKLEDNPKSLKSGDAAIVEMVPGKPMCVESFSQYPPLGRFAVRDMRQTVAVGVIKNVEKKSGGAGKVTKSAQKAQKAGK
As to the kind of experiment: Western blot analysis of eEF1A2 protein levels. Further details: dose or concentration left out as unconfirmed. In kind it is cell-based. Particulars: actin loading control, vehicle as standard of one; preliminary. From the text:
FIGS. 6A and 6B show results from metarrestin-PROTAC studies.
(A western blot detects proteins with antibodies after separation by electrophoresis.)

In data set [3] the test system is PNC prevalence in HeLA cells. The data set is described as follows: Percentage of HeLa cells with PNCs after treatment (FIG. 7). In kind it is cell-based. The source says: PNC prevalence is correlated with metastatic potential and can be disrupted through modulation of the elongation factor eEF1A.
In data set [4] the target is T1, eEF1A2. The note with it: similar treatment conditions, reference [5]; cited from earlier work.
The test system of a further data set is migration and invasion. Particulars: reference [5]; cited from earlier work.
Data set [5] has as its target T1, eEF1A2. As to the kind of experiment: Thermal stability assay using PC3M cell lysate. In kind it is binding. The note with it: FIG. 3B. From the text:
(§1) FIGS. 3A-3E show metarrestin binding and cellular data. FIG. 3A presents data showing that metarrestin specifically binds eEF1A2, and increased eEF1A2 enhances PNCs and metastasis formation. […] Mice from both groups were harvested six weeks after implantation and subjected to necropsy. […] Histopathological images (H&E) of livers (black scale bar=250 μm, white scale bar=100 μm) are shown on the right. Insets depict representative metastatic lesions.
(§2) With respect to the metarrestin target eEF1A2, the biased expression of eEF1A2 in cancer cells over normal adult cells (except neuronal cells) was used to selectively target cancer cells. […] Increased eEF1A2 enhances PNC number per cell (FIG. 3C) and metastasis formation (FIG. 3E). […] Expression of eEF1A2 is associated with cancer metastasis and correlates with poor patient outcomes.

Data set [6] deals with breast cancer patient-derived xenograft. Particulars: PDX harvested from a lung metastasis site, reference [5]; cited from earlier work.
The subject of data set [7] is PC3M (metastatic prostate cancer cell line). Particulars: PC3M xenograft, reference [5]; cited from earlier work.
In data set [8] the test system is PANC1. The data set is described as follows: Orthotopic mouse model with 3-D cultured PANC1 cells (metastasis). In kind it is in vivo. The method, then: (§3) FIGS. 2A-2F show metarrestin and various studies.
(§4) Using a high-content screen to measure reduction of PNC prevalence, noncytotoxic PNC inhibitor hit compounds were discovered such as metarrestin, (FIG. 2A). […] Metarrestin was further evaluated in xenograft models of PC3M (metastatic prostate cancer cell line) and in a breast cancer patient-derived xenograft (PDX, harvested from a lung metastasis site). […] When the survival of the PANC1 tumor-bearing animals was evaluated, two sets of experiments were performed to determine efficacy at two treatment starting points, either after (eight weeks post-inoculation) or prior to (four weeks post-inoculation) macrometastasis had been established.

For data set [9], the target named is T1, eEF1A2. The data set is described as follows: Competition with anchored biotinylated metarrestin-eEF1A2 complex. The note with it: FIG. 3A. Type of data set: binding.
Excerpt: as §1, §2

The subject of data set [10] is PANC1. The data set is described as follows: Survival of PANC1 tumor-bearing animals. In kind it is in vivo, mouse. The note with it: for animal survival, treatment started post-macrometastasis formation / animal survival, treatment started prior to macrometastasis formation: food pellets, 10 mg/kg daily; for animal survival, treatment started post-macrometastasis formation: start eight weeks post-inoculation, FIG. 2F; for animal survival, treatment started prior to macrometastasis formation: start four weeks post-inoculation, FIG. 2E; for organ tumor replacement at autopsy (liver, lung, pancreas): treatment after macrometastasis, versus regular food pellets, FIG. 2G. The method, then:
as §3, §4

A further data set has as its system PNC in PC3M cells. The data set is described as follows: PNC disassembly in PC3M cells with eEF1A2 overexpression. Type of data set: cell-based. The note with it: FIG. 3D.
Excerpt: as §1, §2

Data set [11] is described as follows: Large mammal dose-escalation studies. The note with it: overloading dosing. In kind it is in vivo. From the text: Thus, the potential for dose-limiting neurological side effects could constrain the patient population to drug-resistant or late-stage individuals. However, cancer patient outcomes would generally greatly benefit from adjuvant or co-administration use of an anti-metastasis agent such as metarrestin at any stage of cancer. Therefore, in order to improve the cancer cell selectivity and reduce potential toxicity to normal cells, development of next generation metarrestin derivatives that selectively enhance drug efficacy against cancer cells over normal cells were needed.

For data set [12] the following is noted: reference [29], cited from earlier work.
For data set [13] the following is noted: daily treatment for up to three months, animals, reference [5]; cited from earlier work.

For orientation: IC50 means the concentration needed to halve the response being measured. In data set [1], `N=c1c2c(-c3ccccc3)c(-c3ccccc3)n(Cc3cccc(CNC(=O)CCCCCNc4cccc5c4C(=O)N(C4CCC(=O)NC4=O)C5=O)c3)c2ncn1C1CCC(O)CC1` (stereo not shown) [Compound 46] returned an IC50 of 0.47 µM. Moreover, in the data set with PNC in HeLa cancer cells, the IC50 turned out to be 0.11 µM, the “fold more potent than metarrestin” value was “threefold” and the “IC50 nucleoli.normal/IC50 PNC.cancer” value stood at 4.27.
In the case of `O=C1CCC(N2C(=O)c3cccc(NCCCCCNC(=O)c4ccc(Cn5c(-c6ccccc6)c(-c6ccccc6)c6c(NC7CCC(O)CC7)ncnc65)cc4)c3C2=O)C(=O)N1` (stereo not shown) [Compound 49], the “eEF1A2 protein levels by Western blot” value at eEF1A2 [2] is “significantly reduced; also recorded: significant reduction”. The molecule further displayed a 50% inhibitory concentration (IC50) in data set [1] of 0.1 µM. In the data set with PNC in HeLa cancer cells, the IC50 came out at 0.025 µM, the “fold more potent than metarrestin” value was 14 fold and the “IC50 nucleoli.normal/IC50 PNC.cancer” value came out at 4.
On to `N=c1c2c(-c3ccccc3)c(-c3ccccc3)n(Cc3ccccc3)c2ncn1[C@H]1CC[C@H](OC(=O)CCCNc2cccc3c2C(=O)N(C2CCC(=O)NC2=O)C3=O)CC1` (stereo partly shown) [Compound 56], for which the “PNC prevalence (percentage of cells with PNCs)” value was “almost complete disruption of PNC prevalence” in data set [3] and “measureable reduction in PNC prevalence” in [3] (0.1 μM).
As to `N=c1c2c(-c3ccccc3)c(-c3ccccc3)n(Cc3ccccc3)c2ncn1[C@H]1CC[C@H](OC(=O)CCOCCOCCOCCNc2cccc3c2C(=O)N(C2CCC(=O)NC2=O)C3=O)CC1` (stereo partly shown) [Compound 57], the “PNC prevalence (percentage of cells with PNCs)” value in data set [3] is on record as “almost complete disruption of PNC prevalence”; in data set [3] (0.1 μM), “measureable reduction in PNC prevalence”.
Turning to `N=c1c2c(-c3ccccc3)c(-c3ccccc3)n(Cc3ccccc3)c2ncn1[C@H]1CC[C@H](O)CC1` [Metarrestin], on eEF1A2 [4], the eEF1A2 protein levels entry is recorded as “does not reduce the protein levels”. In addition, in the data set with migration and invasion, the “in vitro anti-oncogenic properties” value was “migration and invasion inhibition”. Further, the “thermal stabilization of eEF1A2” value on eEF1A2 [5] is recorded as “stabilized eEF1A; also recorded: stabilized eEF1A2”. Moreover, the metastatic tumor growth entry in data set [6] is listed as “metastatic tumor growth inhibition”. For the same molecule, the organ metastasis entry in data set [7] is listed as “significant inhibition of organ metastasis”. Further, the “metastasis as organ/tumor ratio in liver and lung” value in the data set with PANC1 [8] (5 mg/kg and 25 mg/kg, FIG. 2B) was “inhibits metastasis”. The “metastatic burden in lung and liver” value with PANC1 [8] (25 mg/kg IP daily for four weeks) is given as “significantly reduced the metastatic burden”. The primary tumor growth entry with PANC1 [8] (25 mg/kg IP daily for four weeks, data not shown) is reported as “only modest reduction”. Further, the “metastasis as metastatic deposits in liver and lung” value in the data set with PANC1 [8] (25 mg/kg, FIG. 2C) is recorded as “inhibits metastasis”. For the same molecule, the “competition of recombinant eEF1A2 binding to anchored biotinylated metarrestin” value at eEF1A2 [9] is recorded as “effectively outcompeted”. For the same molecule, the “animal survival, treatment started post-macrometastasis formation” value with PANC1 [10] (10 mg/kg) was “significantly improved animal survival”; in the data set on PANC1 [10] (listed as metarrestin, 10 mg/kg), “effective at extending survival”. The “animal survival, treatment started prior to macrometastasis formation” value in the data set on PANC1 [10] is reported as “drastic animal survival advantages”; with PANC1 [10] (10 mg/kg), “completely prevented metastasis-induced death”. Moreover, the results for the “organ tumor replacement at autopsy (liver, lung, pancreas)” value with PANC1 [10] and with PANC1 [10] (listed as metarrestin) were “did not show significant tumor replacement” and “less tumors were present”, respectively. Besides, the “change of IC50 for PNC disassembly on eEF1A2 overexpression” value in the data set on PNC in PC3M cells is reported as “increased the IC50”. In addition, the figures for the IC50 (in [1]; in the data set on PNC in HeLa cancer cells) were 2.5 µM and 0.36 µM, respectively. Further, the seizures result in [11] was “reversible seizures”. For the same molecule, the “IC50 nucleoli.normal/IC50 PNC.cancer” value in the data set with PNC in HeLa cancer cells was 6.25. In addition, the half-life entry in data set [12] (allows once-a-day dosing) is on record as “long”. Besides, in [12], the tissue distribution result is listed as “good”. Besides, the adverse effects result in [13] is “does not induce discernable adverse effects”.
